Values of other authors in paper PMC9298350 (British Journal of Clinical Pharmacology, 2021).

Cc1c(N(C)CS(=O)(=O)O)c(=O)n(-c2ccccc2)n1C [metamizole, Metamizole]
Frequency of metamizole-associated agranulocytosis: 0.46–1.63 cases per 10^6 daily doses
Mortality associated with ingestion (review of the available literature): 0.25 per 10^6 prescriptions
